ChEMBL document CHEMBL4261615, “Design, synthesis, biological evaluation and cellular imaging of imidazo[4,5-b]pyridine derivatives as potent and selective TAM inhibitors” (Bioorg Med Chem, 2018)

Experiments:
[1] = species: Homo sapiens; assay: Selectivity ratio of IC50 for recombinant GST-tagged human Mer (578 to 872 residues) cytoplasmic domain to IC50 for recombinant His-tagged human Axl (473 to end residues) cytoplasmic domain
[2] = Drug localization in cytoplasm of human A549 cells at 10 uM after 24 hrs by NanoSIMS analysis; format: ADME, subcellular; conditions: a549, 24 h
[3] = Solubility of the compound in 0.2% DMSO; format: physicochemical

O=C(Nc1ccc(Oc2ccnc3[nH]cnc23)c(F)c1)c1cccn(-c2ccc(F)cc2)c1=O
Ratio IC50 [1]: 120 to 900

CC(C)c1nc2c(Oc3ccc(NC(=O)c4cccn(-c5ccc(F)cc5)c4=O)cc3F)ccnc2[nH]1
Drug uptake [2]: Active

O=C(Nc1ccc(Oc2c(Br)cnc3[nH]cnc23)c(F)c1)c1cccn(-c2ccc(F)cc2)c1=O
solubility [3]: Insoluble
